{
  "source": "patent US20170016915A1",
  "about": "“SCREENING TARGETS AND COMPOSITIONS AND METHODS FOR TREATMENT OF CILIOPATHY DISORDERS” (Duke University, priority 2014, published 2017)",
  "key": {"PSMB5, PSMB6, and PSMB7": {"test_system": "PSMB5, PSMB6, and PSMB7", "settings": "upon treatment with sulforaphane (ref. 36); cited from earlier work"}, "[1]": {"test_system": "GLI2FL, GLI3FL, SUFU and GLI3R in T8-derived Ofd1^KO neurons", "settings": "10 μM SFN", "experimental": "(§1) Transfected cells and mouse tissues were lysed in modified RIPA buffer [150 mM sodium chloride, 50 mM Tris-HCl, pH7.4, 1% nonidet P-40, 0.1% sodium deoxycholate, 1 mM EDTA] with 1× proteasome inhibitor (Roche) and centrifuged at 4° C. for 15 minutes. Protein concentration was measured by Lowry assay using the DC Protein Assay Kit (Bio-Rad) on a DU 530 Life Science UV/Vis Spectrophotometer (Beckman Coulter). Total protein in each sample was separated by SDS-PAGE on 4% to 15% Mini-PROTEAN TGX Precast Gel (Bio-Rad) with a Spectra Multicolor Broad Range Protein Ladder (Fermentas) and transferred to an Immun-Blot PVDF Membrane (Bio-Rad). […] Densitometric analysis was performed with Image Lab (Bio-Rad), Quantity One (Bio-Rad), or ImageJ 1.44p (NIH) software.\n(§2) HEK-293 or HEK-293-FT cells and human dermal fibroblasts were grown in DMEM (Invitrogen) containing 10% FBS (Invitrogen) and 2 mM L-glutamine (Invitrogen), hTERT-RPE1 cells in DMEM and Ham's F-12 Nutrient 1:1 mixture (DMEM/F-12; Invitrogen) with 10% FBS and 2 mM L-glutamine."}, "β-catenin": {"test_system": "β-catenin", "settings": "cells depleted of BBS4, relative to vehicle-treated cells; 10 μM SFN", "experimental": "as §1, with “software. […]” for “software.”"}, "IκBβ": {"test_system": "IκBβ", "settings": "BBS4-, BBS1-, or OFD-suppressant cells", "experimental": "as §1, with “software. […]” for “software.”"}, "NF-κB signaling": {"test_system": "NF-κB signaling", "settings": "TNF-α stimulated cells with pSuperBBS4, pSuperBBS1 or pSuperOFD1; SFN 6 hours", "experimental": "as §2"}, "[2]": {"test_system": "her4 expression (Notch target) in bbs4 morphant zebrafish embryos", "assay": "Whole-mount RNA in situ hybridization of her4 in morphant zebrafish", "format": "in vivo", "settings": "bbs4 morphants, coinjection, 4.5 dpf", "experimental": "(§3) Morpholinos against bbs1 ([NT] ID NO: 13), bbs4 ([NT] ID NO: 14), and ofd1 ([NT] ID NO: 15) were purchased from Gene Tools, LLC. Human RPN10, RPN13, and RPT6 mRNA were in vitro transcribed with a mMESSAGE mMACHINE SP6 Kit (Ambion). SFN was dissolved in DMSO (Sigma-Aldrich) at a stock concentration of 1 M and further diluted in water to 10 mM. The morpholino and mRNA or SFN were mixed, and a volume of 0.5 nl was microinjected. Zebrafish embryos were fixed overnight in 4% PFA at 4° C. Residual pigment was removed by bleaching with 3% H2O2/0.5% KOH."}, "[3]": {"test_system": "bbs4, bbs1 and ofd1 morphant zebrafish embryos", "assay": "Convergent extension (CE) and somite defects in morphant zebrafish embryos, coinjection", "format": "in vivo", "settings": "for rescue of defective CE phenotypes, somitic defects, and persistent her4 expression: coinjection", "experimental": "as §3, with “microinjected.” for “microinjected. Zebrafish embryos were fixed overnight in 4% PFA at 4° C. Residual pigment was removed by bleaching with 3% H2O2/0.5% KOH.”"}},
  "data": [
    {"smiles": "C[S@@+]([O-])CCCCN=C=S", "note": "[SFN, 1-isothiocyanato-4(R)-methylsulfinylbutane]", "values": [
      {"measurement": "expression levels of PSMB5, PSMB6, and PSMB7 and corresponding peptidase activities", "setting": "PSMB5, PSMB6, and PSMB7", "value": "increase"},
      {"measurement": "GLI3R protein levels", "setting": "[1]", "value": "reduced"},
      {"measurement": "accumulation of GLI3FL, GLI2FL, and SUFU", "setting": "[1]", "value": "ameliorated"},
      {"measurement": "β-catenin protein levels", "setting": "β-catenin", "value": "reduction"},
      {"measurement": "accumulation of GFP-tagged IκBβ", "setting": "IκBβ", "value": "ameliorated"},
      {"measurement": "NF-κB activity (3X-κB-L luciferase reporter)", "setting": "NF-κB signaling", "value": "restored"},
      {"measurement": "ectopic expression of her4 in neural structures", "setting": "[2]", "value": "ameliorated"},
      {"measurement": "rescue of defective CE phenotypes, somitic defects, and persistent her4 expression", "setting": "[3]; bbs1 morphants", "value": "robust rescue"},
      {"measurement": "bbs4 morphants with CE and somitic defects", "setting": "[3]; coinjection with bbs4 morpholino, blind scoring at 9±1 ss", "value": "significant reduction"},
      {"measurement": "rescue of defective CE phenotypes, somitic defects, and persistent her4 expression", "setting": "[3]; ofd1 morphants", "value": "robust rescue"},
      {"measurement": "phenotype after injection of the substance alone", "setting": "[3]; zebrafish embryos, no morpholino", "value": "did not give rise to any obvious phenotype"}
    ]}
  ]
}
